{
  "source": "patent US9440966B2",
  "about": "“Compounds for treatment of metabolic syndrome” (SJT MOLECULAR RESEARCH, S.L., priority 2011, dated 2016)",
  "key": {"female Swiss mice": {"test_system": "female Swiss mice", "test": "Acute oral toxicology study in a mice model", "format": "in vivo", "details": "oral 2000 mg/kg single dose, observation for 14 days", "experimental": "The experiments were conducted using female Swiss mice (20-30 g), housed under a 12-h light-dark cycle, with controlled humidity (60-80%), and temperature (22±1° C.). Food and water were freely available to the mice.\nFemale mice (n=6) were orally (2000 mg/kg) administered with a single dose of 4a, 5a, and 7a for the observation of acute signs of toxicity until 14 days. […] The observations comprised the behavior and manifestations of the toxic symptoms, and were carried out according to the Guidelines of the Organization for Economic Cooperation and Development (OECD, 2008).\nAll compounds were dissolved in sterile saline and were administered by oral gavage to mice based in the weight, for example 20 g received 20 μL.\nThe data are expressed as mean±S.E.M. of experiments. Statistical significance was determined through one-way analysis of variances (ANOVA), followed by either Newman-Keuls test. A p<0.05 was considered statistically significant. Graphs were drawn and statistical analysis was carried out using GraphPad Prism version 5.00 for Windows (GraphPad Software, San Diego, Calif., USA)."}, "[1]": {"test_system": "Drosophila melanogaster (Oregon-R strain)", "test": "Toxicology study: larva-to-adult viability and development time", "details": "in vivo", "source_text": "The purpose of this study was to test and compare the potential toxic effects of compounds 5a, 6a and 7a on the larva-to-adult viability and development time in a Drosophila melanogaster (Oregon-R) flies. These studies have a relevant predictive role with the aim to anticipate possible adverse toxicological effects that may happen during preclinical studies with animal, preferably mammals. In addition, the data provided are highly quantitative.\nDrosophila melanogaster (Oregon-R) flies were obtained by the University of the Balearic Islands (Spain). […] The larvae were seeded on standard food supplemented with the appropriate dose of compounds tested. Each compound was tested at 1, 10, 100, 1000 and 2000 μg/ml dissolved in standard food.\nFly adults were transferred from the serial transfer system to bottles with fresh food for 24 h. Adults 5 days old were placed on egg collecting devices (layers) containing a mixture of agar, water, acetic acid, and ethyl alcohol, with a drop of active yeast on it. Every 2 h., the layer glasses were changed, in this way, the eggs of a glass have similar age, with a maximum difference of 2 h. among them. The glasses of the layers were kept at 25° C. for at least 22 h. in Petri dishes until larvae hatched. Fifty larvae were picked with a lancet under a stereoscopic microscope and were seeded into 10×2 cm vials with 5 ml food. Vials were supplemented with 4a, 5a and 7a at 1, 10 and 100 μg/ml. As positive control we used cupric acetate (toxic) at 350 μg/ml.\nThe number of adult flies which emerged from each vial was counted daily until the exhaustion of the culture. The parameters studied were the larvae-to-adult viability (V) and development time.\nViability is expressed as V=NA/NL, where NL is the input number of larvae ([…] in our case) and NA the output number of adults emerging from these NL larvae. Development time was measured in days by the formula DT=ΣNidi/ΣNi where Ni is the number of flies emerging on the day di after the larvae were placed in the medium.\nThe data are expressed as the mean±SEM values from 3 independent experiments involving triplicate vials at the number of flies indicated."}, "[2]": {"test": "Body weight in SHR hypertensive rats", "format": "in vivo, Male SHR", "details": "oral once a day 5, 10 then 15 mg/kg", "experimental": "(§1) Male SHR were provided by Charles River Laboratories (USA). Until the experiments were carried out, the animals have had free access to feed and water. The room temperature was kept at 22±2° C. and the light/dark cycle was of 12 hours. All procedures were submitted to the Animal Experimentation Ethics Committee.\nDistinct rat groups were orally treated, once a day, with 5 mg/kg of compound 5a during the first 4 days, 10 mg/kg during the next 4 days and 15 mg/kg until the end of the treatment period or vehicle (control) for the same days. Similarly, another rat group received metformin (reference drug used for lowering glucose serum levels) in a 300 mg/kg dose, orally, from day 1 to the end of the treatment. Rats were weighted in a CHYO MK2000B precision weight chamber."}, "SHR hypertensive rats": {"test_system": "SHR hypertensive rats", "test": "Plasma cholesterol levels test in SHR hypertensive rats", "format": "in vivo, Male SHR", "details": "25 days of treatment (15 mg/Kg) oral, effect more pronounced for 5a and 7a", "experimental": "(§2) Distinct rat groups were orally treated, once a day, with 5 mg/kg of compounds 4a or 5a or 6a during the first 4 days, 10 mg/kg during the next 4 days and 15 mg/kg until the end of the treatment period or vehicle (control) for the same days. Similarly, another rat group received metformin (MET) (reference drug used for lowering glucose serum levels) in a 300 mg/kg dose, orally, from day 1 to the end of the treatment. Plasma cholesterol levels were measured in triplicate 12 hours after drug administration by the cholesterol oxidase/peroxidase method (BioSystems S.A, Barcelona, Spain). Blood samples were obtained by femoral vein punction. This method was chosen because of its noninvasive character, enabling daily measurements with the same rats throughout the entire treatment.\nas §1\nas §2, with “metformin” for “metformin (MET)”, “Blood pressure was” for “Plasma cholesterol levels were”, “4” for “12”, “administration in warmed warmed, restrained, conscious rats” for “administration”, “tail-cuff” for “cholesterol oxidase/peroxidase”, “with a computerized oscillometric system recorder (Nyprem, Cibertec).” for “(BioSystems S.A, Barcelona, Spain). Blood samples were obtained by femoral vein punction.”"}},
  "data": [
    {"smiles": "COc1ccc(-c2nc(C(=O)NCCCN)cc3c2[nH]c2ccccc23)cc1", "note": "[Compound 5a, N(-propylamine)-1-benzosubstituted-β-carboline-3-carboxamide]", "values": [
      {"measurement": "mortality or behavioral disorders (acute signs of toxicity)", "setting": "female Swiss mice", "value": "did not produce mortality or any behavioral disorders"},
      {"measurement": "larvae-to-adult viability and development time", "setting": "[1]", "value": "not affected"},
      {"measurement": "SHR body weight compared to control untreated rats", "setting": "[2]", "value": "statistically significant effect in lowering SHR body weight"},
      {"measurement": "plasma cholesterol levels", "setting": "SHR hypertensive rats", "value": "inhibition of plasma cholesterol levels"}
    ]}
  ]
}
